Data from the supplement of paper PMC11208160.

Assay: recombinant barcode read abundance after kanamycin selection (control-corrected) (log10(CPM+1)); higher = more efficient recombination; sequences stand for … in AGTGCAGAGAAAATCGGCCAGTTTTCTCTGCCTGCAGTCCGCATGCCGT…AGATTTATGCAGCGGACTGCCTTTCTCCCAAAGTGATAAACCGGACAGTATCATGGACCGGTTTTCCCGGTAATCCGTATTTGCAAGGTTGGTTTCACT; site = the 11-nt target
Procedure, shortened: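 Recombination efficiency was calculated from barcode counts at recombinant junctions, normalized to counts per million, averaged and corrected by the control. Each value is given as log10(CPM+1). The constructs were Gibson-cloned oligos (promoter, target, barcode, J23119-driven first 104 bridge RNA bases) in a vector with the remaining 73 bp and a T7-inducible recombinase, co-electroporated into E. coli with a donor plasmid and plated in duplicate on chloramphenicol/ampicillin LB agar (control) or chloramphenicol/ampicillin/kanamycin with 0.1 mM IPTG.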
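Further: IS621 recombinase and bridge RNA in Escherichia coli cells.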

| Sequence | recombinant barcode read abundance (log10) |
| --- | --- |
| GCTTCCACTTGGGTTCTAACCTGTTGCCT (site CCTTCCACTAG) | 0.24 |
| GCTTCCACTTGGGTTCTAACCTGTTGCCT (site GCTTCCACTAG) | 0.381 |
| GCTTCCACTTGGGTTCTAACCTGTTGCCT (site TCTTCCACTAG) | 0.196 |
| GCTTCGTCTTGGGTTCTAACCTGTTGCCT (site GCATCGTCTAG) | 0.427 |
| GCTTCGTCTTGGGTTCTAACCTGTTGCCT (site GCCTCGTCTAG) | 0.129 |
| GCTTCGTCTTGGGTTCTAACCTGTTGCCT (site GCGTCGTCTAG) | 0.0292 |
| GCTTCGTCTTGGGTTCTAACCTGTTGCCT (site GCTTCGTCTAG) | 0.393 |
| GGAAAAGCTTGGGTTCTAACCTGTTGCTT (site GGAAAAGCTAA) | 0.268 |
| GGAAAAGCTTGGGTTCTAACCTGTTGCTT (site TCTTCGACTCT) | 0.153 |
| GGAACGACTTGGGTTCTAACCTGTTGCGT (site CTCCGAGCTGT) | 0.0623 |
| GGAACGACTTGGGTTCTAACCTGTTGCGT (site GGAACGACTAC) | 1.93 |
| GGACACTCTTGGGTTCTAACCTGTTGCCT (site GGACACTCTAG) | 2.75 |
| GGACACTCTTGGGTTCTAACCTGTTGCCT (site GGACACTCTTA) | 1.09 |
| GGACATTCTTGGGTTCTAACCTGTTGCAT (site GGACATTCTAT) | 0.872 |
| GGACATTCTTGGGTTCTAACCTGTTGCAT (site GTCCATTCTAT) | 0.0875 |
| GGACCTACTTGGGTTCTAACCTGTTGCCA (site GAACCTACTTG) | 0.0276 |
| GGACCTACTTGGGTTCTAACCTGTTGCCA (site GGACCTACTTG) | 0.483 |
| GGACGCTCTTGGGTTCTAACCTGTTGCCT (site GGACGCTCTAG) | 1.83 |
| GGACGCTCTTGGGTTCTAACCTGTTGCCT (site GGTCGCTCTAG) | 0.113 |
| GGACGGCCTTGGGTTCTAACCTGTTGCGT (site CTACGGCCTAC) | 0.152 |
| GGACGGCCTTGGGTTCTAACCTGTTGCGT (site GGACGGCCTAC) | 2.53 |
| GGACGGGCTTGGGTTCTAACCTGTTGCAG (site GAACGGGCTCC) | 0.0984 |

| Sequence | recombinant barcode read abundance (log10) |
| --- | --- |
| GGACGGGCTTGGGTTCTAACCTGTTGCAG (site GGACGGGCTCT) | 2.48 |
| GGAGACGCTTGGGTTCTAACCTGTTGCCT (site GGAGAAGCTAG) | 0.344 |
| GGAGACGCTTGGGTTCTAACCTGTTGCCT (site GGAGACGCTAG) | 1.32 |
| GGAGACGCTTGGGTTCTAACCTGTTGCCT (site GGAGAGGCTAG) | 0.676 |
| GGAGACGCTTGGGTTCTAACCTGTTGCCT (site GGAGATGCTAG) | 0.235 |
| GGAGCACCTTGGGTTCTAACCTGTTGCCT (site GGAGCACCTAG) | 2.38 |
| GGAGCACCTTGGGTTCTAACCTGTTGCCT (site GGAGCAGCTAG) | 0.0718 |
| GGAGCGTCTTGGGTTCTAACCTGTTGCGT (site GGAGCGTCTAC) | 1.61 |
| GGAGCGTCTTGGGTTCTAACCTGTTGCGT (site GGCGCGTCTAT) | 0.299 |
| GGAGGGGCTTGGGTTCTAACCTGTTGCCT (site GGAGGGGCTAG) | 1.75 |
| GGAGGGGCTTGGGTTCTAACCTGTTGCCT (site TGAGGTGCTAG) | 0.0107 |
| GGAGTGACTTGGGTTCTAACCTGTTGCTT (site GGAGTGACTAA) | 0.979 |
| GGAGTGACTTGGGTTCTAACCTGTTGCTT (site GGAGTGACTTA) | 0.176 |
| GGATAGACTTGGGTTCTAACCTGTTGCGT (site GGATACACTAC) | 0.107 |
| GGATAGACTTGGGTTCTAACCTGTTGCGT (site GGATAGACTAC) | 1.95 |
| GGATAGCCTTGGGTTCTAACCTGTTGCCT (site AGATAGCCTAG) | 0.902 |
| GGATAGCCTTGGGTTCTAACCTGTTGCCT (site CGATAGCCTAG) | 0.0205 |
| GGATAGCCTTGGGTTCTAACCTGTTGCCT (site GGATAGCCTAG) | 1.71 |
| GGATAGCCTTGGGTTCTAACCTGTTGCCT (site TGATAGCCTAG) | 0.239 |
| GGATATCCTTGGGTTCTAACCTGTTGCCT (site GGATATCCTAG) | 0.645 |
| GGATATCCTTGGGTTCTAACCTGTTGCCT (site TGAAATCCTAG) | 0.114 |
| GGATCGTCTTGGGTTCTAACCTGTTGCCT (site GGATCGTCTAG) | 1.44 |

| Sequence | recombinant barcode read abundance (log10) |
| --- | --- |
| GGATCGTCTTGGGTTCTAACCTGTTGCCT (site GGTTCCTCTAG) | 0.0567 |
| GGATTCTCTTGGGTTCTAACCTGTTGCCT (site GGACTCACTAG) | 0.0575 |
| GGATTCTCTTGGGTTCTAACCTGTTGCCT (site GGATTCTCTAG) | 1.83 |
| GGCAAGGCTTGGGTTCTAACCTGTTGCCT (site ACGGGTCCTCT) | 0.417 |
| GGCAAGGCTTGGGTTCTAACCTGTTGCCT (site GGCAAGGCTAG) | 0.0617 |
| GGCACCACTTGGGTTCTAACCTGTTGCGT (site GGCACCACTAC) | 1.58 |
| GGCACCACTTGGGTTCTAACCTGTTGCGT (site GGCACTACTAC) | 0.108 |
| GGCACTACTTGGGTTCTAACCTGTTGCGT (site GGCACCACTAC) | 0.661 |
| GGCACTACTTGGGTTCTAACCTGTTGCGT (site GGCACTACTAC) | 0.28 |
| GGCACTTCTTGGGTTCTAACCTGTTGCCT (site GGCACTTCTAG) | 0.188 |
| GGCACTTCTTGGGTTCTAACCTGTTGCCT (site GGCTCTTCTAG) | 0.136 |
| GGCATGTCTTGGGTTCTAACCTGTTGCCT (site GGCATGTCTAG) | 1.15 |
| GGCATGTCTTGGGTTCTAACCTGTTGCCT (site GGCTTGTCTAG) | 0.0534 |
| GGCCCGCCTTGGGTTCTAACCTGTTGCCT (site AGCCCGCCTAG) | 0.0411 |
| GGCCCGCCTTGGGTTCTAACCTGTTGCCT (site CGCCCGCCTAG) | 0.00686 |
| GGCCCGCCTTGGGTTCTAACCTGTTGCCT (site GGCCCGCCTAG) | 0.734 |
| GGCCCGCCTTGGGTTCTAACCTGTTGCCT (site TGCCCGCCTAG) | 0.0746 |
| GGCGATCCTTGGGTTCTAACCTGTTGCCT (site GACGATCCTAG) | 0.151 |
| GGCGATCCTTGGGTTCTAACCTGTTGCCT (site GCCGATCCTAG) | 0.213 |
| GGCGATCCTTGGGTTCTAACCTGTTGCCT (site GGCGATCCTAG) | 1.15 |
| GGCGATCCTTGGGTTCTAACCTGTTGCCT (site GTCGATCCTAG) | 0.059 |
| GGCGCGTCTTGGGTTCTAACCTGTTGCAT (site GGAGCGTCTAC) | 0.0291 |
